From a melting point compilation (Tetko et al.)

| melting point [°C] | Structure (SMILES) |
| --- | --- |
| 87 to 89 | CC1CCCN1C(=O)c1ccc(C#N)cc1 (centres undefined) |
| 109 to 111 | Cc1ccccc1N(CC(=O)O)S(C)(=O)=O |
| 182 to 184 | COc1cc(C(=O)O)ccc1OCc1cnn(C)c1 |
| 84 to 86 | CN1C(=O)C=C(Br)C1=O |
| 170 to 172 | O=C(CCl)Nc1ccccc1C(=O)NC1CC1 |
| 108 to 110 | O=C(O)CCCNC(=O)c1ccc(Cl)cc1 |
| 110 to 112 | O=C(NO)C12CC3CC(CC(C3)C1)C2 |
| 125 to 127 | Cc1ccc(CN2CCOCC2)cc1N |
| 209 to 211 | Cc1cc(C(=O)O)cc(S(=O)(=O)Cl)c1Cl |
| 115 to 117 | O=C(O)C(Nc1ccccc1)c1ccccc1F (centres undefined) |
| 220 to 229 | NNc1ccc([N+](=O)[O-])cc1S(=O)(=O)Nc1ccccc1Cl |
| 182 to 184 | N#Cc1ccccc1OCC(=O)O |
| 99 to 101 | COc1cc(OC)cc(C(N)c2nccn2C)c1 (centres undefined) |
| 140 to 142 | Cc1ccc(C)c(NC(N)=S)c1 |
| 166 to 168 | CCC(C)n1c(S)nnc1-c1ccccc1 (centres undefined) |
| 54 to 56 | OC1(CNCc2ccccc2)CCc2ccccc21 (centres undefined) |
| 264 to 266 | NC(Cc1ccccc1)(C(=O)O)c1ccccc1 (centres undefined) |
| 249 to 251 | COc1cc2c(C#N)c(OC)nc(N)c2c(N)n1 |
| 119 to 121 | O=C(O)c1cccn1CCc1ccccc1 |
| 111 to 113 | O=C(O)Cn1nnc(COc2ccccc2)n1 |
| 99 to 101 | COc1ccnc(N)c1 |
| 99 to 101 | CC(C)c1ccc(C(=O)O)c(C(C)C)c1 |
| 242 to 244 | Cc1cc(C(=O)O)ccc1-n1cncn1 |
| 189 to 191 | CC1CNc2ccccc2C(=O)N1 (centres undefined) |

| melting point [°C] | Structure (SMILES) |
| --- | --- |
| 56 to 58 | CCOC(=O)C(C)(C#N)Cc1ccncc1 (centres undefined) |
| 78 to 80 | COc1cccc(C(=O)NCC(=O)O)c1 |
| 69 to 71 | Cc1nn(C2CCCCC2)c(C)c1N |
| 146 to 148 | COc1ccc(NC(=O)NN)cc1 |
| 169 to 171 | CC(C)c1nn(-c2ccccc2)cc1C(=O)O |
| 113 to 115 | CC(Oc1cccc(Br)c1)C(=O)NN (centres undefined) |
| 67 to 69 | O=C1CCOc2c(Cl)ccc(Cl)c21 |
| 105 to 115 | O=C(O)c1cc(S(=O)(=O)Cl)ccc1Cl |
| 151 to 155 | Cc1n[nH]c(C)c1CC(=O)O |
| 163 to 167 | COc1ccc(-c2csc3ncnc(Cl)c23)cc1 |
| 207 to 209 | O=C(O)CS(=O)(=O)CC(=O)Nc1ccc(Br)cc1 |
| 119 to 121 | Cn1cc(C#N)c(N)n1 |
| 113 to 115 | Cc1nc(N2CCCCC2)sc1C=O |
| 30 to 32 | COC(=O)c1ccc(Cl)nc1C |
| 153 to 155 | O=C(O)CNS(=O)(=O)Cc1ccccc1 |
| 119 to 121 | Nc1ccccc1N1CCN(CCc2ccncc2)CC1 |
| 162 to 164 | Nc1ccc(S(=O)(=O)Nc2ccc([N+](=O)[O-])cc2)cc1 |
| 186 to 188 | Cn1cc(COc2ccc(O)cc2)cn1 |
| 167 to 169 | CCOC(=O)c1sc2nc(C(C)Cl)[nH]c(=O)c2c1C (centres undefined) |
| 91 to 93 | c1ccc(NCC2CCCCC2)nc1 |
| 93 to 95 | Nc1cc(Cl)n[nH]1 |
| 39 to 41 | O=C1C=CC(=O)N1CCCN1CCOCC1 |
| 247 to 249 | O=C1COc2cccc(O)c2N1 |
| 61 to 63 | CC(C)(C)OC(=O)NCC1CCCCC1N (centres undefined) |

| melting point [°C] | Structure (SMILES) |
| --- | --- |
| 59 to 61 | CNS(=O)(=O)CCC(=O)OCc1ccccc1 |
| 134 to 136 | COC(=O)c1cc([N+](=O)[O-])cc(S(C)(=O)=O)c1 |
| 103 to 105 | N#CCN(C(=O)c1ccccc1)C1CC1 |
| 169 to 172 | C=CCc1ccc(OCC(=O)O)c(OC)c1 |
| 219 to 221 | O=C(O)c1c[nH]c2cc(Cl)ccc12 |
| 200 to 210 | NC(=O)c1cc(-c2ccccc2)sc1N |
| 139 to 141 | CC(C)(C)Nc1ccc(C(N)=NO)nc1 |
| 89 to 91 | Nc1c(Cl)ccc2nsnc12 |
| 244 to 246 | Cc1cc(C)n2ncc(C(=O)NCC(=O)O)c2n1 |
| 215 to 217 | COC(=O)c1n[nH]c(=O)c2noc(C)c12 |
| 97 to 99 | CCOc1ccccc1OCCC(=O)O |
| 104 to 106 | Cc1ccc(Cl)c2ccc(N)nc12 |
| 163 to 165 | Nc1cc(S(=O)(=O)N2CCCC2)ccc1O |
| 175 to 177 | O=Cc1cn(-c2ccc(Cl)c(Cl)c2)nn1 |
| 163 to 165 | Cc1ccc(C=CC(=O)O)nc1 |
| 69 to 73 | COc1ccc(C(=O)c2ccc(OC)cc2OC)cc1 |
| 165 to 167 | O=C(O)CNC(=O)c1ccoc1 |
| 236 to 238 | Cc1c(C(=O)O)oc2c(F)cccc12 |
| 91 to 95 | CCNc1ccc(C(=O)OCC)cc1[N+](=O)[O-] |
| 217 to 219 | Brc1cnc2nc[nH]c2c1 |
| 135 to 137 | C=CCc1cc(OCC)ccc1O |
| 165 to 167 | O=C(O)c1cccn1-c1cccc(I)c1 |
| 277 to 279 | CC(=O)Nc1cc(C(=O)O)ccc1C |
| 126 to 128 | OCCn1nccc1C1CCNCC1 |

| melting point [°C] | Structure (SMILES) |
| --- | --- |
| 197 to 199 | Cc1cc(Br)cc(Cl)c1OCC(=O)O |
| 204 to 207 | NC(=S)Cc1nc2ccccc2[nH]1 |
| 51 to 53 | Nc1cccnc1OCc1ccccc1 |
| 140 to 142 | O=C(O)c1c(Cl)cc(C(F)(F)F)cc1Cl |
| 79 to 81 | N#CCOc1cccc(CC(=O)O)c1 |
| 179 to 181 | CC(C)(C)C(=O)Nc1ccc(F)c(C(=O)O)c1 |
| 115 to 117 | Nc1cncnc1-c1ccccc1 |
| 224 to 226 | O=C(O)CC1NC(=O)N(c2ccc(F)cc2)C1=O (centres undefined) |
| 202 to 204 | Cn1ncc(C(=O)O)c1Br |
| 87 to 89 | O=C(c1ccc(Cl)cc1)c1cccnc1 |
| 190 to 192 | O=C1CN(c2ccccc2)C(=O)N1 |
| 79 to 81 | CCCCCCOc1ccc(CC(=O)O)cc1 |
| 349 to 351 | O=C(O)c1ccc(C=C2NC(=S)N(c3ccc(F)cc3)C2=O)cc1 |
| 211 to 213 | Cc1cn2c(CC(=O)O)csc2n1 |
| 212 to 214 | O=C(Cc1ccc(Br)cc1)Nc1ccccc1C(=O)O |
| 113 to 115 | CCOc1cc(C=O)ccc1OCc1ccc(C(C)(C)C)cc1 |
| 107 to 109 | Oc1ccc(-n2cccn2)cc1 |
| 179 to 181 | CNc1ncnc2ccsc12 |
| 66 to 68 | CCc1ccc(CC)c(-c2csc(N)n2)c1 |
| 73 to 75 | Clc1ccnc(C2=NCCO2)c1 |
| 66 to 68 | NC(=NO)c1ccsc1 |
| 123 to 125 | O=S1(=O)Cc2ccccc2N1 |
| 91 to 93 | CC(C)c1ccc(C(=O)CC#N)cc1 |
| 51 to 53 | CC1C(O)CC2CC1C2(C)C (centres undefined) |

| melting point [°C] | Structure (SMILES) |
| --- | --- |
| 114 to 116 | COc1ccc(OCc2cc(C)on2)c(C(=O)O)c1 |
| 230 to 232 | Nn1cnc2ccc(Br)cc2c1=O |
| 54 to 56 | Cc1cc(Br)ncc1N |
| 91 to 93 | O=C(O)CN1C(=O)CCC1=O |
| 77 to 79 | Fc1cc(CCl)c2c(c1)COC(c1ccsc1)O2 (centres undefined) |
| 208 to 210 | COc1ccc(NC(N)=S)cc1 |
| 173 to 175 | CN(C)CCOc1cc(C(=O)O)ccn1 |
| 100 to 102 | CC(C)COc1ccc(-c2nn(-c3ccccc3)cc2C=O)cc1 |
| 165 to 167 | CC(C)(C)c1ccc(C(C)(C)C(=O)O)cc1 |
| 63 to 65 | O=C1C(Br)CCN1c1ccc(C(F)(F)F)cc1 (centres undefined) |
| 80 to 82 | COC(=O)C(O)c1cccc(Cl)c1 (centres undefined) |
| 279 to 281 | O=C(O)c1cccc(NC(=O)c2ccc(F)cc2)c1 |
| 130 to 135 | O=C(O)C1CC(=O)N(c2ccccc2F)C1 (centres undefined) |
| 116 to 118 | Cc1cc(Cl)c([N+](=O)[O-])cc1S(=O)(=O)Cl |
| 84 to 86 | CNCCNS(=O)(=O)c1ccc(C)cc1 |
| 199 to 201 | Cc1sc2[nH]c(=O)oc(=O)c2c1C |
| 89 to 91 | O=C(COc1ccc(F)cc1)N1CCNCC1 |
| 235 to 237 | NC(=O)c1cc(-c2csc(N)n2)c[nH]1 |
| 99 to 101 | Cc1csc(Sc2ccc(N)cc2)n1 |
| 189 to 191 | O=C(O)C=CC(=O)Nc1ccc(F)c(Cl)c1 |
| 98 to 100 | CCOC(=O)c1cnn(-c2ccc(C(F)(F)F)cn2)c1C(F)(F)F |
| 149 to 151 | Cc1ccc2cccnc2c1S(=O)(=O)Cl |
| 266 to 268 | Nc1nc(-c2cccnc2)no1 |
| 253 to 255 | O=C(O)CC1COCCN1 (centres undefined) |

| melting point [°C] | Structure (SMILES) |
| --- | --- |
| 224 to 226 | Cc1cc(C(=O)O)c2c(CC(C)(C)C)noc2n1 |
| 186 to 188 | CCOc1ccc2c(c1)C=C(C(=O)O)CO2 |
| 218 to 220 | Oc1ccccc1-n1ccnc1 |
| 225 to 227 | COc1ccc(C(=O)O)cc1S(=O)(=O)NCc1ccncc1 |
| 185 to 187 | NS(=O)(=O)c1ccc(Cl)c(S(=O)(=O)Cl)c1 |
| 70 to 72 | CCS(=O)(=O)N(C)CC(=O)O |
| 130 to 132 | NCc1ccc(OCCOc2ccc(Cl)cc2)cc1 |
| 99 to 101 | Cc1cnn(-c2ccc(S(=O)(=O)Cl)cc2F)c1 |
| 128 to 130 | NCC(=O)Nc1cccc2ncccc12 |
| 79 to 81 | Cc1cc(C(=O)CCl)c(C)cc1Br |
| 74 to 76 | Fc1ccc(Oc2ccncc2)c(Br)c1 |
| 169 to 171 | NC(=NO)c1ccc(N2CCC(O)CC2)cc1 |
| 123 to 125 | Cc1nnc(Cl)c2ccccc12 |
| 149 to 151 | NNC(=O)c1cc(F)ccc1Br |
| 122 to 124 | Cc1cc(Cl)c2cc(Cl)cc(C)c2n1 |
| 138 to 140 | CC(Oc1ccc(O)cc1)C(N)=O (centres undefined) |
| 89 to 91 | COc1ccc(CNS(C)(=O)=O)cc1 |
| 139 to 141 | Cn1ncc(C(=O)O)c1N |
| 110 to 112 | CC(C)(C)OC(=O)NC1CC2CCCC(C1)C2N (centres undefined) |
| 217 to 219 | O=C(O)c1cc(C(=O)O)cc(S(=O)(=O)Cl)c1 |
| 44 to 46 | COC(=O)c1cc(S(=O)(=O)Cl)ccc1C |
| 246 to 248 | N#Cc1ccc(Oc2ccc(C(=O)O)cc2)nc1 |

| Structure (SMILES) | melting point [°C] |
| --- | --- |
| c1ccc(NC2=NCCCS2)cc1 | 124 to 126 |
| Cn1cc(S(=O)(=O)Cl)cc1C(=O)C(Cl)(Cl)Cl | 158 to 160 |
